Experimental data: publication PMC8750417, “Intracellular Amplifiers of Reactive Oxygen Species Affecting Mitochondria as Radiosensitizers” (Cancers, 2021)

Columns and labels:
[1] = system: chronic lymphocytic leukemia (CLL) cells; test: Viability of primary CLL cells (CellTiter Glo); assay type: cell-based, human; conditions: 48 h
Excerpt: Determination of viability of primary cancer (CLL) and normal (MNC) cells in the […]
Clinical samples from chronic lymphocytic leukemia (CLL) patients (N=6, CLL cells) and healthy donors (N=6; peripheral blood mononuclear cells, MNCs) were collected at the University Hospital Heidelberg, Germany. Informed consent was obtained in accordance with the Declaration of Helsinki. Sample collection and analysis was approved by the ethics committee of the University of Heidelberg (S-254/2016). Blood was separated by a Ficoll gradient (GE Healthcarey), and cells were cryopreserved. Drug sensitivity screening was performed in 384-well format (Greiner Bio One) with 10 different prodrug […]
4x10^4 cells per well. Cells were cultured in RPMI-1640 (Invitrogen) supplemented with penicillin/streptomycin (Invitrogen), L-glutamine (Invitrogen) and 10% pooled and heat inactivated AB-type human serum (Sigma-Aldrich). Cell viability was assessed by quantification of ATP (CellTiter Glo®, Promega) 48 hours after drug application.
Luminescence was measured on a Tecan Infinite F200 Microplate Reader. Viability was calculated as % of solvent (DMSO) treated control. Representative plots of cell viability

A2780 cells = test: Intracellular carbonyl derivatives (DCCH), A2780; assay type: cell-based, human; conditions: 24 h
Method: and the cells were incubated in the dark chamber filled with CO2 (5%) at 37 °C for 20 min.
Next, the cells were detached from the culture dish using trypsin/EDTA (0.025%/0.01%, v/v, 50 µL). The cells were re-suspended in RPMI 1640 medium containing 5% FBS, 1% L-glutamine and 1% penicillin/streptomycin (100 µL). Finally, the fluorescence of live cells (λex = 488 nm, λem = 578 nm) in the suspensions was determined by using flow cytometry […]
Figure S60. Representative flow cytometric histograms used for setting up Figures 4B […]
Monitoring intracellular carbonyl derivatives
A2780 cells were seeded into 24 well culture plates at the same cell concentration and in the same medium as applied for the assay for monitoring tROS described above. The next day, stock solutions of prodrugs of different concentrations (5 μL of stock solutions in DMSO, final concentration of prodrugs 5 and 10 μM; control 7 2 and 5 µM) or carrier only (DMSO, 5 µL, final concentration 1 %, v/v) were added to the wells and incubated in the chamber filled with CO2 (5%). After 24 h, the cells were washed twice with DPBS buffer and the medium was replaced with HBSS (Hanks' Balanced Salt solution, 500 μL). […]
Finally, the fluorescence of live cells (λex = 488 nm, λem = 530 nm) in the suspensions was determined by using flow cytometry (Figure 4C). […]

[2] = Hydrolysis of prodrugs in aqueous neutral solution (HPLC-UV-MS); assay type: physicochemical; conditions: 1 to 1_BA
Method: To identify the active form of prodrugs 2a–2d in aqueous neutral buffers, we investigated their stability in the water rich solvent mixture containing triethylammonium acetate buffer (pH 7.0, 1.5 mM) and CH3CN (7/3, v/v). We observed that even freshly prepared solutions of analytically pure samples of 2a–2d (peaks eluted at 10.2–10.7 min) contain hydrolyzed species corresponding to boronic acid derivatives 2a_BA–2d_BA (peaks eluted at 7.1–7.5 min, 7–14% of the area of all peaks) (Figure S43, SI). After 2 h incubation of these samples, the peaks of 2a_BA–2d_BA become major ones (79–87% of the area of all peaks, Figure S43, SI).
Figure S42. High resolution ESI-TOF mass spectrum of HCl salt of drug 4 (4*HCl): upper plot – experimental spectrum; bottom plot – theoretical spectrum.
Determination of crystal structure of prodrug 2a […]
Stock solutions of prodrugs (2a-2d, 3 mM) in DMSO were first prepared. […] After the probes (20 µL) of these solutions were incubated for 0 or 2 h at 37 °C, they were injected to HPLC coupled to UV-visible detector (detection of absorbance at 254 nm) and electrospray mass spectrometric detector (detection of positively charged ions in the m/z range of 300 - 1200) and the analytes were separate d by using gradients of CH3CN (containing formic acid, 0.1 %, v/v) in water (containing ammonium formate, 10 mM and formic acid, 0.1 %, v/v) from 15% to 95%. […]

Row | SMILES | IC50 ([1]; primary CLL cells from six patients) [µM] | cancer cell specificity, primary CLL cells vs MNCs ([1]; viability of CLL vs MNC, for 2c at 3.3 and 10 µM) | formation of intracellular carbonyl derivatives (A2780 cells) | time of formation of the hydrolyzed form in aqueous neutral solution [2] [h]
1 | CC1(C)OB(c2ccc(COC(=O)N(Cc3cn(Cc4ccc(Cn5cc(Cc6ccccc6)nn5)cc4)nn3)[c-]3cccc3)cc2)OC1(C)C.[Fe+2].c1cc[cH-]c1 [2c] | 6 ± 2 | significantly more toxic in the cancer cells than in the normal cells | did not induce formation of significant amounts of carbonyl derivatives | –
2 | CCOC(=O)CCCCCn1cc(CN(C(=O)OCc2ccc(B3OC(C)(C)C(C)(C)O3)cc2)[c-]2cccc2)nn1.[Fe+2].c1cc[cH-]c1 [compound 1] | – | – | – | < 2
